From US4238620A, “Dibenz[b,f]oxepin and dibenzo[b,f]thiepin derivatives, process for preparation thereof, method of using the same, and compositions thereof” (priority 1978, dated 1980)
Read-outs that look alike come from different tables or passages of the source.

Tests used:
[1] = test system: Carrageenin-induced hind paw oedema in rats; assay: Carrageenin-induced hind paw oedema in rats (CAR method), acute inflammation; format: in vivo; details: Rattus norvegicus, po, read-out: Anti-inflammatory activity ED50, acute inflammation, CAR
Protocol: (§1) (1) Effect on acute inflammation:
(a) Carrageenin-induced hind paw oedema in rats (CAR method)
The test was carried out according to the method described in Proc. Soc. Exp. Biol. Med., 111, 544 (1962).

[2] = test system: Ultraviolet-induced erythema in guinea-pigs; assay: Ultraviolet-induced erythema in guinea-pigs (UVE method), acute inflammation; format: in vivo; details: Cavia porcellus, po, read-out: Anti-inflammatory activity ED50, acute inflammation, UVE
Protocol: as §1
(b) Ultraviolet-induced erythema in guinea-pigs (UVE method)
The test was carried out according to the method described in Arch. Int. Pharmacodyn. Ther., 116, 261 (1958).

[3] = test system: adjuvant-induced arthritis in rats; assay: Therapeutic activity on adjuvant-induced arthritis in rats (AAT method), subacute and chronic inflammation; format: in vivo; details: Rattus norvegicus, po, read-out: Minimum Effective Dose, subacute and chronic inflammation, AAT*
Protocol: (§2) (2) Effect on subacute and chronic inflammations:
(a) Therapeutic activity on adjuvant-induced arthritis in rats (AAT method)
The test was carried out according to the method described in Brit. J. Pharmacol., 21, 127 (1963) and Japan J. Pharmacol., 23, 58 (1973).

[4] = test system: Felt pellet-induced granuloma formation in rats; assay: Felt pellet-induced granuloma formation in rats (FGF method), subacute and chronic inflammation; format: in vivo; details: Rattus norvegicus, po, read-out: Minimum Effective Dose, subacute and chronic inflammation, FGF*
Protocol: as §2
(b) Felt pellet-induced granuloma formation in rats (FGF method)
The test was carried out according to the method described in J. Amer. Pharm. Assoc., 46, 515 (1957) and Chem. Pharm. Bull., 23, 1446 (1975).

[5] = test system: AgNO3-induced joint pain in rats; assay: AgNO3-induced joint pain in rats (AGP method), analgesic activity; format: in vivo; details: Rattus norvegicus, po, read-out: Analgesic activity ED50, AGP
Protocol: (§3) TEST 2. ANALGESIC ACTIVITY
(a) AgNO3 -induced joint pain in rats (AGP method)
The test was carried out according to the method described in J. Pharmacol. Expt. Ther., 98, 19 (1950)

[6] = test system: Acetic acid (AcOH)-induced writhing in rats; assay: Acetic acid (AcOH)-induced writhing in rats (ACW method), analgesic activity; format: in vivo; details: Rattus norvegicus, po, read-out: Analgesic activity ED50, ACW
Protocol: as §3
(b) Acetic acid (AcOH)-induced writhing in rats (ACW method)
The test was carried out according to the method described in Arzneim. Forsch., 25, 1505 (1975).

[7] = test system: Yeast-induced fever in rats; assay: Yeast-induced fever in rats (YEF method), antipyretic activity; format: in vivo; details: Rattus norvegicus, po, read-out: Antipyretic activity ED50, YEF
Protocol: TEST 3. ANTIPYRETIC ACTIVITY
Yeast-induced fever in rats (YEF method)
The test was carried out according to the method described in Arzneim. Forsch., 13, 338 (1963).

in vivo [8] = details: rat, po
in vivo [9] = details: rat, po; remark: listed apart in the source
Protocol: (§4) (b) Repeated administrations in rats
(§5) Test compounds were orally administered once daily for 5 days, and LD50 -value was calculated from the mortality on the 6th day.

[10] = Overall comparison of anti-inflammatory, analgesic and antipyretic activities (Tests 1 to 3); format: in vivo, rats; guinea-pigs; details: for anti-inflammatory, analgesic and antipyretic activities compared with indomethacin: vs indomethacin (compound 3)
Description: (§6) From these diagrams, the correlation between the pharmacological activity of each compound and its ulcerogenicity and toxicity, i.e. the safety margin of each compound, can be clearly seen. In these Figures, the lines and letters have the following meanings:
(§7) The following conclusions can be drawn from Tables I to III and FIGS. 1 and 2. In the following description, the therapeutic index means LD50 /ED50 (or MED), and the safety index means UD50 /ED50 (or MED). The safety margin of a given compound is broader when it has larger therapeutic and or safety indices.

rats = assay: Overall comparison of lethal toxicity (Test 5); format: in vivo; details: for toxicity compared with indomethacin (in words): vs indomethacin
Protocol: (a) Single administration in rats
as §4, §5

[11] = Gastrointestinal ulcer formation in fed rats (ulcerogenicity); format: in vivo; details: rat, in vivo, po, fed rats; read-out: UD50 (50% ulcer forming dose)
Protocol: (§8) TEST 4. ULCEROGENICITY IN GASTROINTESTINAL TRACT
(§9) Gastrointestinal ulcer formation in fed rats
(§10) The test was carried out according to the method described in Science, 170, 183 (1970).

[12] = format: in vivo; details: for therapeutic index compared with indomethacin: vs indomethacin
Description: In the following description, the therapeutic index means LD50 /ED50 (or MED), and the safety index means UD50 /ED50 (or MED).

[13] = Safety index (UD50/ED50 or MED), separation of activity from ulcerogenicity; format: in vivo; details: for separation of anti-inflammatory, analgesic and antipyretic activities from ulcerogenicity: FIGS. 1 and 2, vs indomethacin
Description: as §6, §7

[14] = test system: Gastrointestinal ulcer formation in fed rats; assay: Gastrointestinal ulcer formation in fed rats (ulcerogenicity); format: in vivo; details: fraction of that of compound 2
Protocol: as §8, §9, §10

[15] = rats, single administration, 7th day, read-out: LD50 Single
[16] = rats, once daily for 5 days, mortality on 6th day, read-out: LD50 Repeated

| SMILES | ED50 ([1]; rats, CAR method) [mg/kg] | toxicity compared with indomethacin (in words) (rats) | ED50 [1] [mg/kg] | ED50 [2] [mg/kg] | minimal effective dose [3] [mg/kg/day] | minimal effective dose [4] [mg/kg/day] | ED50 [5] [mg/kg] | ED50 [6] [mg/kg] | ED50 [7] [mg/kg] | TD50 [11] [mg/kg] | LD50 at 168 h (in vivo [8]; [15]) [mg/kg] | LD50 at 144 h (in vivo [9]; [16]) [mg/kg] | also measured |
| --- | --- | --- | --- | --- | --- | --- | --- | --- | --- | --- | --- | --- | --- |
| Cc1ccc2c(c1)CC(=O)c1cc(CC(=O)OCCOCCO)ccc1O2 [compound F, 2-(2-Hydroxyethoxy)ethyl 8-methyl-10,11-dihydro-11-oxodibenz[b,f]oxepin-2-acetate] | 7.95 | – | – | – | – | – | – | – | – | – | – | – | – |
| CC(C(=O)OCCOCCO)c1ccc2c(c1)C(=O)Cc1ccccc1O2 (racemic) [compound D, 2-(2-Hydroxyethoxy)ethyl dl-2-(10,11-dihydro-11-oxodibenz[b,f]oxepin-2-yl)propionate] | 2.87 | far weaker than those of indomethacin | – | – | – | – | – | – | – | – | – | – | ED50 ([2]; guinea-pigs, UVE method): 1.5 mg/kg; minimal effective dose ([3]; rats, AAT method): 1 mg/kg/day; minimal effective dose ([4]; rats, FGF method): 6 mg/kg/day; ED50 ([5]; rats, AGP method): 4.6 mg/kg; ED50 ([6]; rats, ACW method): 1.06 mg/kg; ED50 ([7]; rats, YEF method): 0.112 mg/kg; LD50 at 168 h (in vivo [8]): 260 mg/kg; LD50 at 144 h (in vivo [9]): > 24 mg/kg; activity on subacute and chronic inflammation compared with indomethacin ([10]; AAT and FGF, vs indomethacin): inferior to that of indomethacin; anti-inflammatory (acute), analgesic and antipyretic activities compared with indomethacin ([10]; acute inflammation, analgesic, antipyretic, vs indomethacin): almost equivalent to those of indomethacin; pharmacological activities compared with compound 1 ([10]; vs compound 1): comparable to those of compound 1 |
| Cc1ccc2c(c1)CC(=O)c1cc(C(C)C(=O)O)ccc1O2 (racemic) [compound A, dl-2-(8-Methyl-10,11-dihydro-11-oxodibenz[b,f]oxepin-2-yl)propionic acid] | – | far weaker than those of indomethacin | 3.38 | 0.3 | 0.2 | 2 | 2.6 | 0.28 | 0.021 | 2.97 | 147 | > 12 | pharmacological activities compared with compound 1 ([10]; vs compound 1): stronger pharmacological activities in all the methods tested; pharmacological potency and/or safety margin compared with compound 1 ([10]; vs compound 1): superior to compound 1 not only in pharmacological activities but also in safety margin; anti-inflammatory, analgesic and antipyretic activities compared with indomethacin [10]: equivalent or superior to those of indomethacin; average therapeutic index relative to compound 1 ([12]; LD50/ED50 (or MED), vs compound 1): about 3.7 times; therapeutic index compared with indomethacin [12]: far larger therapeutic indices than indomethacin; separation of anti-inflammatory, analgesic and antipyretic activities from ulcerogenicity [13]: more separated from ulcerogenicity in the gastrointestinal tract than in indomethacin; average safety index relative to compound 1 ([13]; UD50/ED50 (or MED), vs compound 1): about 1.6 times; toxicity relative to compound 1 (rats; vs compound 1): less toxic than compound 1 |
| CC(C(=O)O)c1ccc2c(c1)C(=O)Cc1ccccc1O2 (stereo not drawn) [compound 1, 2-(10,11-dihydro-11-oxodibenz[b,f]oxepin-2-yl)propionic acid, reference compound] | – | – | 3.65 | 0.93 | 1 | 3 | 5.8 | – | 0.062 | 4.85 | 106 | – | – |
| COc1ccc2c(c1)c(CC(=O)O)c(C)n2C(=O)c1ccc(Cl)cc1 [compound 3, indomethacin, reference compound] | – | – | 3.3 | 9.12 | 0.2 to 0.4 | 2 | 4.1 | 0.44 | 0.223 | 3.95 | 18.5 | ~5 | – |
| Cc1ccc2c(c1)CC(=O)c1cc(C(C)C(=O)OCCOCCO)ccc1S2 (racemic) [compound G, 2-(2-Hydroxyethoxy)ethyl dl-2-(8-methyl-10,11-dihydro-11-oxodibenzo[b,f]thiepin-2-yl)propionate] | – | far weaker than those of indomethacin | 5.94 | 2.52 | ≤ 0.2 | – | 0.96 | 0.33 | 0.041 | 2.94 | – | > 16 | ulcerogenicity relative to compound 2 [14]: about 1/5; analgesic activity compared with compounds 2 and C ([10]; AGP, ACW, vs compounds 2 and C): stronger than those of compounds 2 and C; antiinflammatory and antipyretic activities compared with compounds 2 and C ([10]; vs compounds 2 and C): weaker than those of compounds 2 and C; anti-inflammatory, analgesic and antipyretic activities compared with indomethacin [10]: equivalent or superior to those of indomethacin; average therapeutic index relative to compound 2 ([12]; LD50/ED50 (or MED), vs compound 2): more than 8 times; breadth of safety margin compared with compound 2 ([12]; safety margin, vs compound 2): far superior to compound 2; therapeutic index compared with indomethacin [12]: far larger therapeutic indices than indomethacin; separation of anti-inflammatory, analgesic and antipyretic activities from ulcerogenicity [13]: more separated from ulcerogenicity in the gastrointestinal tract than in indomethacin; average safety index relative to compound 2 ([13]; UD50/ED50 (or MED), vs compound 2): about 5 times; toxicity relative to compound 2 (rats; fraction of that of compound 2): less than 1/7 |
| Cc1ccc2c(c1)CC(=O)c1cc(CC(=O)O)ccc1O2 [compound B, 8-Methyl-10,11-dihydro-11-oxodibenz[b,f]oxepin-2-acetic acid] | 2.2 | – | – | – | – | – | – | – | – | – | – | – | ED50 ([2]; guinea-pigs, UVE method): 4.48 mg/kg; minimal effective dose ([4]; rats, FGF method): 20 mg/kg/day; ED50 ([7]; rats, YEF method): 0.357 mg/kg; activity on acute inflammation and fever compared with indomethacin ([10]; acute inflammation and fever, vs indomethacin): nearly comparable to that of indomethacin |
| CC(C(=O)O)c1ccc2c(c1)C(=O)Cc1ccccc1S2 (stereo not drawn) [compound 2, 2-(10,11-dihydro-11-oxodibenzo[b,f]thiepin-2-yl)propionic acid, reference compound] | – | – | 1.2 | 0.98 | < 0.1 | 0.25 | 1.66 | 1.16 | 0.022 | 0.62 | – | 2.15 | – |
